The text below walks through data of patent publication US20260248863A1, “METHODS AND MATERIALS FOR TREATING GASTROINTESTINAL DISORDERS” (Mayo Foundation for Medical Education and Research, priority 2020, published 2026).

For experiment [1], the system named is Caco-2 monolayers. In words: Texas red dextran flux across Caco-2 monolayers. It is filed as cell-based. As to the method: (§1) Apical addition of high PA fecal supernatants on Caco-2 monolayers caused a drop in transepithelial resistance (TER) which was not seen with low PA supernatant (FIG. 16A). […] Since pancreatic elastases were found as the most abundant proteases driving the fecal PA, their effects on barrier were tested.

Experiment [2] relates to Caco-2 monolayers. In words: Transepithelial resistance (TER) drop induced by high PA fecal supernatants on Caco-2 monolayers. It counts as cell-based. As for the experimental part: as §1

`CC(C)C[C@H](NC(=O)[C@H]1O[C@@H]1C(=O)O)C(=O)NCCCCN=C(N)N` [E64]: the “reduction of increased paracellular (Texas red dextran) flux caused by high PA supernatants” value in the experiment on Caco-2 monolayers [1] (apical preincubation, 0.1 mM E64, Caco-2 monolayers, FIG. 17B) was “not”. Besides, in the experiment on Caco-2 monolayers [2] (apical preincubation, 0.1 mM E64, Caco-2 monolayers, FIG. 17A), the “inhibition of fecal supernatant induced TER drop” value is “not”.
Take `CC(C)CC(=O)N1CCN(C(=O)CCCCCN)CC1` [ENMD1068]: the “effect of high PA fecal supernatant on TER (in words)” value in the experiment on Caco-2 monolayers [2] (FIG. 18, n=5/group, p<0.05) is recorded as “blocks”. Besides, in the experiment with Caco-2 monolayers [2] (preincubation of Caco-2 monolayer, 150 μM), the “inhibition of TER drop induced by high PA fecal supernatants” value was 45%.
Regarding Trypsin, in the experiment on Caco-2 monolayers [1], the effect on barrier result was “had an effect on barrier”.
On to “porcine pancreatic elastase: porcine pancreatic elastase, protease tested for effects on barrier”, for which, in the experiment with Caco-2 monolayers [1] (1 mM, Caco-2 monolayers, control 0.1 μg/mL, n=4/group, p<0.05), the “Texas red dextran flux, 24 hour basolateral concentration” value was 5.9 µg/mL.
